Among the test systems are BT-549; HT-29; SK-MEL-2; CAKI-1; EKVX; SK-MEL-5; SN12C; OVCAR-8; M14; RPMI-8226; LOX IMVI; A549; HL-60; SF-268; Hs-578T; ACHN; Malme-3M; NCI-H23; UACC-62; CCRF-CEM.
Assay in all cases: NCI tumour cell line growth inhibition, 48 h

Each structure is given as a SMILES string.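 Protocol summary: plate cells (96-well), add compound at 5 concentrations, incubate 48 h, interpolate endpoints linearly. The concentration for 50% growth inhibition is given as GI50.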 Calls of active or inactive are those of the source. Rule as the data show it: active = GI50 up to about 1.1 µM and inactive = higher.

For `Oc1[nH]c(Nc2ccc(Cl)cc2)nc2ncnc1-2`, the GI50 in the experiment with BT-549 is > 100 µM (inactive); with HT-29, 47.4 µM (inactive); with SK-MEL-2, > 100 µM (inactive); in the experiment on CAKI-1 it was > 100 µM (inactive); in the experiment with EKVX, > 100 µM (inactive); in the experiment with SK-MEL-5, > 100 µM (inactive). Moreover, the GI50 with SN12C is > 100 µM (inactive); with OVCAR-8, > 100 µM (inactive); with M14, 89.1 µM (inactive); in the experiment on RPMI-8226 it was > 100 µM (inactive); with LOX IMVI it was > 100 µM (inactive); in the experiment on A549, > 100 µM (inactive). The GI50 was > 100 µM (inactive) with HL-60; 55 µM (inactive) in the experiment on SF-268; 23.3 µM (inactive) in the experiment on Hs-578T; 63.7 µM (inactive) in the experiment on ACHN; > 100 µM (inactive) in the experiment with Malme-3M; > 100 µM (inactive) in the experiment with NCI-H23. For the same compound, the GI50 in the experiment with UACC-62 was > 100 µM (inactive).

For the compound `Oc1ccc(Cc2cc(Cl)cc(Cl)c2O)cc1Cl`, the GI50 in the experiment with BT-549 is 18.8 µM (inactive); with HT-29, 20.1 µM (inactive); with SK-MEL-2, 15.5 µM (inactive); with CAKI-1, 22.6 µM (inactive); in the experiment with EKVX it was 19.4 µM (inactive); with SK-MEL-5 it was 17.5 µM (inactive). The GI50 in the experiment on SN12C is 15.1 µM (inactive); in the experiment with OVCAR-8, 19 µM (inactive); with M14 it was 15.7 µM (inactive); in the experiment on RPMI-8226 it was 22.3 µM (inactive); with LOX IMVI, 16.6 µM (inactive); in the experiment with A549 it was 19.1 µM (inactive). The GI50 in the experiment on HL-60 was 1.04 µM (active); in the experiment on SF-268 it was 16.6 µM (inactive); in the experiment on Hs-578T, 18 µM (inactive); with ACHN it was 17.4 µM (inactive); with Malme-3M it was 16.8 µM (inactive); in the experiment on NCI-H23, 16.3 µM (inactive). Also, the GI50 in the experiment with UACC-62 was 14.7 µM (inactive).

For the compound `Cc1sc2nc3n(c(=O)c2c1C)N=C(c1ccccc1)CS3`, the GI50 with BT-549, with HT-29, in the experiment on CAKI-1, in the experiment on EKVX, with CCRF-CEM and in the experiment on SK-MEL-5 was > 100 µM (inactive) in each case. Further, the GI50 in the experiment with SN12C, in the experiment on OVCAR-8, in the experiment with RPMI-8226, with LOX IMVI, with A549 and in the experiment with HL-60 was > 100 µM (inactive) in each case. For the same compound, the GI50 was > 100 µM (inactive) in the experiment with SF-268; 37.5 µM (inactive) in the experiment on Hs-578T; > 100 µM (inactive) with ACHN; > 100 µM (inactive) in the experiment on Malme-3M; > 100 µM (inactive) with NCI-H23; > 100 µM (inactive) in the experiment with UACC-62.

In the case of `O=C(O)c1nc2ccc(C(F)(F)F)cc2nc1Nc1ccc(F)cc1`, the GI50 is 12.5 µM (inactive) in the experiment on BT-549; 28.1 µM (inactive) in the experiment with HT-29; 15.3 µM (inactive) in the experiment on SK-MEL-2; 30 µM (inactive) with CAKI-1; 20.7 µM (inactive) with EKVX; 18 µM (inactive) with SK-MEL-5. The GI50 was 26.8 µM (inactive) in the experiment with SN12C; 17.2 µM (inactive) in the experiment on OVCAR-8; 18.5 µM (inactive) with LOX IMVI; 12.6 µM (inactive) in the experiment with HL-60; 15.5 µM (inactive) in the experiment on SF-268; 36.4 µM (inactive) in the experiment on Hs-578T. The GI50 is 21.4 µM (inactive) in the experiment with ACHN, 15.4 µM (inactive) in the experiment with Malme-3M, 15.2 µM (inactive) in the experiment on NCI-H23 and 11.7 µM (inactive) in the experiment on UACC-62.

As for `O=S1(=O)c2ccccc2C(=NO)c2ccccc21`, the GI50 with BT-549 is 59.2 µM (inactive); in the experiment with HT-29, > 100 µM (inactive); with SK-MEL-2, > 100 µM (inactive); with CAKI-1, > 100 µM (inactive); in the experiment on EKVX, 35.3 µM (inactive); in the experiment on CCRF-CEM, 47.1 µM (inactive). For the same compound, the GI50 in the experiment on SK-MEL-5 is 70.3 µM (inactive); in the experiment on SN12C, 92.9 µM (inactive); in the experiment with OVCAR-8, > 100 µM (inactive); in the experiment on M14 it was > 100 µM (inactive); in the experiment on RPMI-8226, 59.4 µM (inactive); in the experiment on LOX IMVI, 80.2 µM (inactive). Also, the GI50 is > 100 µM (inactive) with A549; 14.8 µM (inactive) with HL-60; > 100 µM (inactive) in the experiment with SF-268; 63.8 µM (inactive) in the experiment with Hs-578T; > 100 µM (inactive) with ACHN; > 100 µM (inactive) in the experiment with NCI-H23. Further, the GI50 in the experiment with UACC-62 is > 100 µM (inactive).

Consider `COc1cc(/C=C/C(=O)CC(=O)/C=C/c2ccc(OC(=O)CCCCC3CCSS3)c(OC)c2)ccc1OC(=O)CCCCC1CCSS1` (stereo not drawn), for which the GI50 in the experiment with BT-549, in the experiment on HT-29, in the experiment on SK-MEL-2, in the experiment with EKVX, in the experiment with CCRF-CEM and in the experiment with SK-MEL-5 was > 100 µM (inactive) in each case. The GI50 with SN12C, in the experiment on OVCAR-8, with M14, with RPMI-8226, with LOX IMVI and in the experiment on A549 was > 100 µM (inactive) throughout. Moreover, the GI50 in the experiment on HL-60, in the experiment on SF-268, in the experiment with Hs-578T, in the experiment with ACHN, in the experiment on Malme-3M and with NCI-H23 was > 100 µM (inactive) each time. Further, the GI50 in the experiment with UACC-62 was > 100 µM (inactive).

As to `COC(=O)[C@]1(CCC(C)=O)C(=O)C=CN([C@H](C)c2ccccc2)[C@@H]1Cc1ccc(OC)c(OCc2ccccc2)c1I`, the GI50 is 24.1 µM (inactive) in the experiment on BT-549; 14.6 µM (inactive) in the experiment on HT-29; 16.6 µM (inactive) with SK-MEL-2; 29.2 µM (inactive) with CAKI-1; 29.6 µM (inactive) in the experiment on EKVX; 25.4 µM (inactive) in the experiment on CCRF-CEM. For the same compound, the GI50 was 13.9 µM (inactive) in the experiment with SK-MEL-5; 18 µM (inactive) in the experiment on SN12C; 22 µM (inactive) with OVCAR-8; 15 µM (inactive) in the experiment with M14; 14.7 µM (inactive) with RPMI-8226; 17.2 µM (inactive) in the experiment with LOX IMVI. The GI50 in the experiment on A549 was 20.4 µM (inactive); in the experiment with HL-60, 24 µM (inactive); in the experiment on SF-268, 15.4 µM (inactive); in the experiment on Hs-578T, 24 µM (inactive); in the experiment with ACHN, 25.7 µM (inactive); with NCI-H23 it was 23.7 µM (inactive). Further, the GI50 with UACC-62 is 14.8 µM (inactive).

In the case of `Cc1ccc2cc3c(ccc4ccccc43)c3c2c1CC3` [3-METHYLCHOLANTHRENE], the GI50 with BT-549 is > 100 µM (inactive); in the experiment on HT-29, > 100 µM (inactive); in the experiment on SK-MEL-2, > 100 µM (inactive); in the experiment with CAKI-1 it was > 100 µM (inactive); in the experiment with EKVX, 75.5 µM (inactive); in the experiment on CCRF-CEM, > 100 µM (inactive). In addition, the GI50 in the experiment on SK-MEL-5, with SN12C, in the experiment on OVCAR-8, with M14, with RPMI-8226 and in the experiment with LOX IMVI was > 100 µM (inactive) each time. Besides, the GI50 is > 100 µM (inactive) in the experiment with A549; > 100 µM (inactive) in the experiment on HL-60; > 100 µM (inactive) with SF-268; 83.9 µM (inactive) with Hs-578T; > 100 µM (inactive) in the experiment on ACHN; > 100 µM (inactive) in the experiment with NCI-H23. In the experiment on UACC-62, the GI50 was > 100 µM (inactive).

For the origin of these results see ChEMBL document CHEMBL1201862, “PubChem BioAssay data set” (2004).
